# System: 3T3-L1 preadipocytes
# Assay: Inhibition of preadipocyte differentiation, Oil Red O lipid accumulation
# Format: cell-based
# Settings: positive control, 100 μM baicalin
# Experimental: In order to select a strain having excellent obesity prevention and treatment effects among the strains obtained in the Example 1, an experiment was conducted to identify the ability thereof to inhibit differentiation of preadipocytes into adipocytes. To induce the differentiation of 3T3-L1 preadipocytes, the preadipocytes were dispensed into each 96-well plate at 1.25×10^5 cells/well. After 2 days, the medium was changed so that the cells were completely fused on the 4th day. MDI (0.5 mM 3-isobutyl-1-methylxanthine), 1 μM dexamethasone and 1 μg/mL of insulin solution added to 10% FBS DMEM medium. Subsequently, in the experimental group, the culture supernatant of the strain obtained in Example 1 was added to the medium at a concentration of 1,000 μg/mL. […] Adipocyte differentiation was completed after 6 days, and the amount of lipid accumulated in the cell was measured using Oil Red 0 (Sigma, USA), which reacts specifically with the lipid drop generated in the cell. […] For quantification, distilled water was removed, isopropyl alcohol was added to a completely dry well, and then, absorbance was measured at 520 nm. Then, a degree of inhibition of adipocyte differentiation ability was analyzed by comparing the produced lipid drop content with that of the MDI treatment group based on the measured absorbance.
smiles,measurement,value
O=C(O)[C@H]1O[C@@H](Oc2cc3oc(-c4ccccc4)cc(=O)c3c(O)c2O)[C@H](O)[C@@H](O)[C@@H]1O [baicalin],relative lipid content,81.40%

# Reference: patent US11484557B2, “Human-derived Lactobacillus fermentum MG4231 or Lactobacillus fermentum MG4244 strain having anti-obesity activity, and composition comprising same” (MEDIOGEN CO., LTD., priority 2018, dated 2022)
